Each molecule was assayed on mutant Huntington (HTT) protein (assay: HTT Mutant HTRF iPSC assay (mHTT protein lowering)). Settings: human iPSC derived from a HTT patient with a poly-Q49 mutation.
Type: cell-based

`Cc1cn2nc(-c3cc(F)c4nc([C@H]5C[C@]6(CCN(C)C6)C5)cn4c3)cc(C)c2n1` [Compound 203, 6-(8-fluoro-2-((2s,4s)-6-methyl-6-azaspiro[3.4]octan-2-yl)imidazo[1,2-a]pyridin-6-yl)-2,8-dimethylimidazo[1,2-b]pyridazine] and `[2H]C1(N2CCC(c3cn4cc(-c5cc(C)c6nc(C)cn6n5)cc(F)c4n3)CC2)CC1` [Compound 207, 6-(2-(1-(cyclopropyl-1-d)piperidin-4-yl)-8-fluoroimidazo[1,2-a]pyridin-6-yl)-2,8-dimethylimidazo[1,2-b]pyridazine] cannot be ordered by IC50: < 100 nM for the first, < 100 nM for the second.

Compared with `Cc1cn2nc(-c3cc(F)c4nc([C@H]5[C@@H]6CN(C7CC7)C[C@@H]65)cn4c3)cc(C)c2n1` [Compound 204, 6-(2-((1R,5S,6r)-3-cyclopropyl-3-azabicyclo[3.1.0]hexan-6-yl)-8-fluoroimidazo[1,2-a]pyridin-6-yl)-2,8-dimethylimidazo[1,2-b]pyridazine], `Cc1cn2nc(-c3cc(F)c4nc([C@H]5[C@@H]6CN(C7CCC7)C[C@@H]65)cn4c3)cc(C)c2n1` [Compound 211, 6-(2-((1R,5S,6r)-3-cyclobutyl-3-azabicyclo[3.1.0]hexan-6-yl)-8-fluoroimidazo[1,2-a]pyridin-6-yl)-2,8-dimethylimidazo[1,2-b]pyridazine] is lower in IC50: 100 to 1000 nM for the first, < 100 nM for the second. The second is the more potent here.

`COC1CC1N1CCC(c2cn3cc(-c4cc(C)c5nc(C)cn5n4)cc(F)c3n2)CC1` (stereo not drawn) [Compound 205, 6-(8-fluoro-2-(1-(2-methoxycyclopropyl)piperidin-4-yl)imidazo[1,2-a]pyridin-6-yl)-2,8-dimethylimidazo[1,2-b]pyridazine] and `Cc1cn2nc(-c3cc(F)c4nc(C5CCN(C6COC6C)CC5)cn4c3)cc(C)c2n1` (stereo not drawn) [Compound 213, 6-(8-fluoro-2-(1-(2-methyloxetan-3-yl)piperidin-4-yl)imidazo[1,2-a]pyridin-6-yl)-2,8-dimethylimidazo[1,2-b]pyridazine] fall in the same range of IC50: 100 to 1000 nM for the first, 100 to 1000 nM for the second.

`Cc1cn2nc(-c3cc(F)c4nc(C5CC6CCC(C5)N6)cn4c3)cc(C)c2n1` (stereo not drawn) [Compound 206] and `Cc1cn2nc(-c3cc(F)c4nc([C@H]5C[C@@H](C)N[C@@H](C)C5)cn4c3)cc(C)c2n1` [Compound 215, 6-(2-((2S,4r,6R)-2,6-dimethylpiperidin-4-yl)-8-fluoroimidazo[1,2-a]pyridin-6-yl)-2,8-dimethylimidazo[1,2-b]pyridazine] cannot be ordered by IC50: < 100 nM for the first, < 100 nM for the second.

`Cc1cn2nc(-c3cc(F)c4nc(C56CC(N(C)C7CC7)(C5)C6)cn4c3)cc(C)c2n1` [Compound 208, N-cyclopropyl-3-(6-(2,8-dimethylimidazo[1,2-b]pyridazin-6-yl)-8-fluoroimidazo[1,2-a]pyridin-2-yl)-N-methylbicyclo[1.1.1] pentan-1-amine] and `Cc1cn2nc(-c3cc(F)c4nc(C5CCN(C6COC6(C)C)CC5)cn4c3)cc(C)c2n1` (stereo not drawn) [Compound 210, 6-(2-(1-(2,2-dimethyloxetan-3-yl)piperidin-4-yl)-8-fluoroimidazo[1,2-a]pyridin-6-yl)-2,8-dimethylimidazo[1,2-b]pyridazine] fall in the same range of IC50: 100 to 1000 nM for the first, 100 to 1000 nM for the second.

First: Cc1cn2nc(-c3cc(F)c4nc([C@H]5[C@@H]6CN(CC7CC7)C[C@@H]65)cn4c3)cc(C)c2n1 [Compound 212, 6-(2-((1R,5S,6r)-3-(cyclopropylmethyl)-3-azabicyclo[3.1.0]hexan-6-yl)-8-fluoroimidazo[1,2-a]pyridin-6-yl)-2,8-dimethylimidazo[1,2-b]pyridazine]
Second: Cc1cn2nc(-c3cc(F)c4nc([C@H]5[C@@H]6CN(CCF)C[C@@H]65)cn4c3)cc(C)c2n1 [Compound 216, 6-(8-fluoro-2-((1R,5S,6r)-3-(2-fluoroethyl)-3-azabicyclo[3.1.0]hexan-6-yl)imidazo[1,2-a]pyridin-6-yl)-2,8-dimethylimidazo[1,2-b]pyridazine]
The IC50 of the first is lower: < 100 nM for the first, 100 to 1000 nM for the second.
